According to paper PMC10046369, “Low-Affinity/High-Selectivity Dopamine Transport Inhibition Sufficient to Rescue Cognitive Functions in the Aging Rat” (Biomolecules, 2023):

Key:
PKNB(M.tuberculosis) = PKNB(M.tuberculosis) (Mycobacterium tuberculosis, UniProt P9WI81); assay: biochemical; set-up: KINOMEscan competition binding panel, per cent of control; settings: read-out: %Ctrl @ 2800nM
CCR1 = CCR1 (Homo sapiens, UniProt P32246); assay: cell-based; set-up: Eurofins Cerep functional GPCR screen, antagonist mode, inhibition of control agonist response; settings: read-out: % Inhibition of Control Agonist Response, Mean
B1 = target: T1, B1 (Homo sapiens, UniProt P46663); assay: cell-based; set-up: Eurofins Cerep functional GPCR screen, antagonist mode, inhibition of control agonist response; settings: read-out: % Inhibition of Control Agonist Response, Mean
T1 construct: gene BDKRB1

CCR4 = CCR4 (Homo sapiens, UniProt P51679); assay: cell-based; set-up: Eurofins Cerep functional GPCR screen, antagonist mode, inhibition of control agonist response; settings: read-out: % Inhibition of Control Agonist Response, Mean
β1 = target: T2, β1 (Homo sapiens, UniProt P08588); assay: cell-based; set-up: Eurofins Cerep functional GPCR screen, antagonist mode, inhibition of control agonist response; settings: read-out: % Inhibition of Control Agonist Response, Mean
T2 construct: gene ADRB1

H4 = target: T3, H4 (Homo sapiens, UniProt Q9H3N8); assay: cell-based; set-up: Eurofins Cerep functional GPCR screen, antagonist mode, inhibition of control agonist response; settings: read-out: % Inhibition of Control Agonist Response, Mean
T3 construct: gene HRH4

CXCR5 = CXCR5 (Homo sapiens, UniProt P32302); assay: cell-based; set-up: Eurofins Cerep functional GPCR screen, antagonist mode, inhibition of control agonist response; settings: read-out: % Inhibition of Control Agonist Response, Mean
CCR6 = CCR6 (Homo sapiens, UniProt P51684); assay: cell-based; set-up: Eurofins Cerep functional GPCR screen, antagonist mode, inhibition of control agonist response; settings: read-out: % Inhibition of Control Agonist Response, Mean
β3 = target: T4, β3 (Homo sapiens, UniProt P13945); assay: cell-based; set-up: Eurofins Cerep functional GPCR screen, antagonist mode, inhibition of control agonist response; settings: read-out: % Inhibition of Control Agonist Response, Mean
T4 construct: gene ADRB3

α2A = target: T5, α2A (Homo sapiens, UniProt P08913); assay: cell-based; set-up: Eurofins Cerep functional GPCR screen, antagonist mode, inhibition of control agonist response; settings: read-out: % Inhibition of Control Agonist Response, Mean
T5 construct: gene ADRA2A

Ghrelin / GHSR-1a = target: T6, Ghrelin / GHSR-1a (Homo sapiens, UniProt Q92847); assay: cell-based; set-up: Eurofins Cerep functional GPCR screen, antagonist mode, inhibition of control agonist response; settings: read-out: % Inhibition of Control Agonist Response, Mean
T6 construct: GHSR-1a isoform

CCR8 = CCR8 (Homo sapiens, UniProt P51685); assay: cell-based; set-up: Eurofins Cerep functional GPCR screen, antagonist mode, inhibition of control agonist response; settings: read-out: % Inhibition of Control Agonist Response, Mean
CCK1 (CCKA) = target: T7, CCK1 (CCKA) (Homo sapiens, UniProt P32238); assay: cell-based; set-up: Eurofins Cerep functional GPCR screen, antagonist mode, inhibition of control agonist response; settings: read-out: % Inhibition of Control Agonist Response, Mean
T7 construct: gene CCKAR

FFA1 = target: T8, FFA1 (Homo sapiens, UniProt O14842); assay: cell-based; set-up: Eurofins Cerep functional GPCR screen, antagonist mode, inhibition of control agonist response; settings: read-out: % Inhibition of Control Agonist Response, Mean
T8 construct: gene FFAR1

GPR103/QRFP = target: T9, GPR103/QRFP (Homo sapiens, UniProt Q96P65); assay: cell-based; set-up: Eurofins Cerep functional GPCR screen, antagonist mode, inhibition of control agonist response; settings: read-out: % Inhibition of Control Agonist Response, Mean
T9 construct: gene QRFPR

GHRH = target: T10, GHRH (Homo sapiens, UniProt Q02643); assay: cell-based; set-up: Eurofins Cerep functional GPCR screen, antagonist mode, inhibition of control agonist response; settings: read-out: % Inhibition of Control Agonist Response, Mean
T10 construct: gene GHRHR

FFA4 (GPR120) = target: T11, FFA4 (GPR120) (Homo sapiens, UniProt Q5NUL3); assay: cell-based; set-up: Eurofins Cerep functional GPCR screen, antagonist mode, inhibition of control agonist response; settings: read-out: % Inhibition of Control Agonist Response, Mean
T11 construct: gene FFAR4

BB2 = target: T12, BB2 (Homo sapiens, UniProt P30550); assay: cell-based; set-up: Eurofins Cerep functional GPCR screen, antagonist mode, inhibition of control agonist response; settings: read-out: % Inhibition of Control Agonist Response, Mean
T12 construct: gene GRPR

C3aR = target: T13, C3aR (Homo sapiens, UniProt Q16581); assay: cell-based; set-up: Eurofins Cerep functional GPCR screen, antagonist mode, inhibition of control agonist response; settings: read-out: % Inhibition of Control Agonist Response, Mean
T13 construct: gene C3AR1

MT2 (ML1B) (h) = target: T14, MT2 (ML1B) (h) (Homo sapiens, UniProt P49286); assay: cell-based; set-up: functional GPCR antagonist screen (Eurofins Cerep), percent inhibition of control agonist response; settings: antagonist effect, against control agonist; read-out: % Inhibition of Control Agonist Response, Mean
T14 construct: gene MTNR1B

NOP (h) (ORL1) = target: T15, NOP (h) (ORL1) (Homo sapiens, UniProt P41146); assay: cell-based; set-up: functional GPCR antagonist screen (Eurofins Cerep), percent inhibition of control agonist response; settings: antagonist effect, against control agonist; read-out: % Inhibition of Control Agonist Response, Mean
T15 construct: gene OPRL1

P2Y1 (h) = target: T16, P2Y1 (h) (Homo sapiens, UniProt P47900); assay: cell-based; set-up: functional GPCR antagonist screen (Eurofins Cerep), percent inhibition of control agonist response; settings: antagonist effect, against control agonist; read-out: % Inhibition of Control Agonist Response, Mean
T16 construct: gene P2RY1

IP (PGI2) (h) = target: T17, IP (PGI2) (h) (Homo sapiens, UniProt P43119); assay: cell-based; set-up: functional GPCR antagonist screen (Eurofins Cerep), percent inhibition of control agonist response; settings: antagonist effect, against control agonist; read-out: % Inhibition of Control Agonist Response, Mean
T17 construct: gene PTGIR

PAR1 (h) = target: T18, PAR1 (h) (Homo sapiens, UniProt P25116); assay: cell-based; set-up: functional GPCR antagonist screen (Eurofins Cerep), percent inhibition of control agonist response; settings: antagonist effect, against control agonist; read-out: % Inhibition of Control Agonist Response, Mean
T18 construct: gene F2R

EP2 (h) = target: T19, EP2 (h) (Homo sapiens, UniProt P43116); assay: cell-based; set-up: functional GPCR antagonist screen (Eurofins Cerep), percent inhibition of control agonist response; settings: antagonist effect, against control agonist; read-out: % Inhibition of Control Agonist Response, Mean
T19 construct: gene PTGER2
T19 sequence (P43116 whole entry): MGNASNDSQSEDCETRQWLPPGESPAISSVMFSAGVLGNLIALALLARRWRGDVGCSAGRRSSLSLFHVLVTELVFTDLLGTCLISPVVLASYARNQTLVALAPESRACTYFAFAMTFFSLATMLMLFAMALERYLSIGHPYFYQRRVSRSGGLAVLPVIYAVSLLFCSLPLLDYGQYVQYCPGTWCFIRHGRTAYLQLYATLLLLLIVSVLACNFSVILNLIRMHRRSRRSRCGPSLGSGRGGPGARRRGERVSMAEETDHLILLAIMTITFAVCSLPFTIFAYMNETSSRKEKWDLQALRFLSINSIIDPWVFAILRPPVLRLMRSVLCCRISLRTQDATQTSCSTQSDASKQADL

T9 sequence (Q96P65 whole entry): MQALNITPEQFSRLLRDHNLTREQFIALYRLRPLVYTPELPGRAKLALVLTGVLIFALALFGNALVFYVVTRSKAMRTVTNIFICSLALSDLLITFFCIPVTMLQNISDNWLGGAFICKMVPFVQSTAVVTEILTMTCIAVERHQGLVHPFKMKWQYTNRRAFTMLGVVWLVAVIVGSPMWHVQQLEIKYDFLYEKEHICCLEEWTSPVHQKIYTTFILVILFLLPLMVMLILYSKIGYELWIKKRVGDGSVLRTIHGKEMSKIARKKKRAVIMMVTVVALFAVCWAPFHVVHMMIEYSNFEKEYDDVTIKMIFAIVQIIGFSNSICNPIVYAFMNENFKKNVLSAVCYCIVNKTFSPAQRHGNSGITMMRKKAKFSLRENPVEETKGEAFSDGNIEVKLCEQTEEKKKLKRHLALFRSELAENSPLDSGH
T7 sequence (P32238 whole entry): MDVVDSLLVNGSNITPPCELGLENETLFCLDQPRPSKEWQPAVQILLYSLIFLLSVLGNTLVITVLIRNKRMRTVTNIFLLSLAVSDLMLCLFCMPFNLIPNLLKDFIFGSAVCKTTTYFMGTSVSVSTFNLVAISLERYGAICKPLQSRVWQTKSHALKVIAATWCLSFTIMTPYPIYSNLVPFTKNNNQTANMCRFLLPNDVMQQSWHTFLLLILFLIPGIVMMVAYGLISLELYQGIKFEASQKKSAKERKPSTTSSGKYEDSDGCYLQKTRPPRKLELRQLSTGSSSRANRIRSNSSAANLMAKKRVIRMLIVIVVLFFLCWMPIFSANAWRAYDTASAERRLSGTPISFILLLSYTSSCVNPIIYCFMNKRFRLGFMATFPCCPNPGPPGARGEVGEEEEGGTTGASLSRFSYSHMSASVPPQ
T12 sequence (P30550 whole entry): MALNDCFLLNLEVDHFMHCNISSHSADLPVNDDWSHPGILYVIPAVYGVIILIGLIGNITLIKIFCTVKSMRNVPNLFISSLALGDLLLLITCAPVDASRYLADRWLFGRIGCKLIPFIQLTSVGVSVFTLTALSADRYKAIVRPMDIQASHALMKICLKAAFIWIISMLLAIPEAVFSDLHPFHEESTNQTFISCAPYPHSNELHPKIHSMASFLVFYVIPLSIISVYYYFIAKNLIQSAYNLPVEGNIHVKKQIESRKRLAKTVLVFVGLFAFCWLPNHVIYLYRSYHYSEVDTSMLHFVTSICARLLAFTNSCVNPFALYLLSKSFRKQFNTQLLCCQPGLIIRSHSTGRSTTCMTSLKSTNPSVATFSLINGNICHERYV
PKNB(M.tuberculosis), sequence (P9WI81 whole entry): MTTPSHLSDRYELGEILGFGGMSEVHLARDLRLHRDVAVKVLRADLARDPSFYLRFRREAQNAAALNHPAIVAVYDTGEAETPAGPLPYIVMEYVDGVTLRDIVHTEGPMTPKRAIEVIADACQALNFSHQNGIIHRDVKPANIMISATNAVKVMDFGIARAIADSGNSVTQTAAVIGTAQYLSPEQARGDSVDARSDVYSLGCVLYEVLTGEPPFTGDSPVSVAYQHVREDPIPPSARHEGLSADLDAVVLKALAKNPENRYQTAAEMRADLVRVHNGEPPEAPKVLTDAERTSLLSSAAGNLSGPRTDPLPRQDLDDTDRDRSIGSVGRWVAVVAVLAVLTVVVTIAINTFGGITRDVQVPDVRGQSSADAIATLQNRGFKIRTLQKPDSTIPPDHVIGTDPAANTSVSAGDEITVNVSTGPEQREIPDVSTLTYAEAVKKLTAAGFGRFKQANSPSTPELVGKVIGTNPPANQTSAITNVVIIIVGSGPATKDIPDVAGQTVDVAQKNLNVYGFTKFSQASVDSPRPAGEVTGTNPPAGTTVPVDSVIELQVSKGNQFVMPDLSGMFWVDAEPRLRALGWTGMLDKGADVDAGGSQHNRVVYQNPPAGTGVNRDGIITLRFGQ
T3 sequence (Q9H3N8 whole entry): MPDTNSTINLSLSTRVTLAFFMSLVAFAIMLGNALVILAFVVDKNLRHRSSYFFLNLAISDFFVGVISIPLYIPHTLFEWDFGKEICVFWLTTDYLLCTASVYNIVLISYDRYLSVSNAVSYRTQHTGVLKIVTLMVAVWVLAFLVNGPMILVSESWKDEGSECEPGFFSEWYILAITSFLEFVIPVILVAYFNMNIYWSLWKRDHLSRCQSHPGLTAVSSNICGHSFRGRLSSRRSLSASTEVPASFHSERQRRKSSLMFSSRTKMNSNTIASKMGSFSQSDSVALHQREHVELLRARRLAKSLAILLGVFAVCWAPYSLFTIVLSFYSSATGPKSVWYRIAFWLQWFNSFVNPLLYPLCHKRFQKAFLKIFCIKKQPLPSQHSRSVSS
CCR6, sequence (P51684 whole entry): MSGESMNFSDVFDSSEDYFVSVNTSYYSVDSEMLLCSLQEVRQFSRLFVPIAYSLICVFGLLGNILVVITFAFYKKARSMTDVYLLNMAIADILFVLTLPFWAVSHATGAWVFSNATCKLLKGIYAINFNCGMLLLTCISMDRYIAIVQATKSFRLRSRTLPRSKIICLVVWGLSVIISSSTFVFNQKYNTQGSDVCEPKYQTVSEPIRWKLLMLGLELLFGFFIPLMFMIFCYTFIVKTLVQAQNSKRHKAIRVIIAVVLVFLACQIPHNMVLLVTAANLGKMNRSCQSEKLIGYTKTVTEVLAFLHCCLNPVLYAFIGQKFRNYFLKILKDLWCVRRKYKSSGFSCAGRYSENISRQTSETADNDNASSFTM
T6 sequence (Q92847 whole entry, canonical isoform): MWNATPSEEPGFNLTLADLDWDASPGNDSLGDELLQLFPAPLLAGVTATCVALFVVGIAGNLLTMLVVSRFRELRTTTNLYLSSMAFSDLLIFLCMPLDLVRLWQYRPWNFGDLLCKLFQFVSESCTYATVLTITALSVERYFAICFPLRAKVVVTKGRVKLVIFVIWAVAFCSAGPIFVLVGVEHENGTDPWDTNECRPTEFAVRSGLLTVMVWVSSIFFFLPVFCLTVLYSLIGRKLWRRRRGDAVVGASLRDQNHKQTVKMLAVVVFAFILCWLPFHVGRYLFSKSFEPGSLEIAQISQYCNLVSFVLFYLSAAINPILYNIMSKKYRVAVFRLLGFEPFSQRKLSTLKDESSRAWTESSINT
CXCR5, sequence (P32302 whole entry): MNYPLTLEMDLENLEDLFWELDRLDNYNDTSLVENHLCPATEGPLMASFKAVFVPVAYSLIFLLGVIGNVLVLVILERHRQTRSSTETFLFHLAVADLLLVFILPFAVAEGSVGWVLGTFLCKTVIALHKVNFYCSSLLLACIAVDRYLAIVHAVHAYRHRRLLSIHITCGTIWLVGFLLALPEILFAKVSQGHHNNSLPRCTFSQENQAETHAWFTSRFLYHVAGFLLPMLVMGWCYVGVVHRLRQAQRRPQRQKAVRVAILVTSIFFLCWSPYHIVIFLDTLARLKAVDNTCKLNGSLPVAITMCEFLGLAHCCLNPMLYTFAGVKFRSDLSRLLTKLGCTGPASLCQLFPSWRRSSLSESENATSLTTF
T8 sequence (O14842 whole entry): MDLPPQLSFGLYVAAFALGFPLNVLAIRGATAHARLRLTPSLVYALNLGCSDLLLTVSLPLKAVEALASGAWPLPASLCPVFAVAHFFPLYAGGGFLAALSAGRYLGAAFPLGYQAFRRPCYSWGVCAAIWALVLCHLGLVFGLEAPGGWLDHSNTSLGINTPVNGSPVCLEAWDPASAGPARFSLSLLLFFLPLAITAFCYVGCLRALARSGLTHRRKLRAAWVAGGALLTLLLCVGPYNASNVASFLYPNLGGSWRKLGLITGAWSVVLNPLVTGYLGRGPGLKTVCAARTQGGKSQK
CCR1, sequence (P32246 whole entry): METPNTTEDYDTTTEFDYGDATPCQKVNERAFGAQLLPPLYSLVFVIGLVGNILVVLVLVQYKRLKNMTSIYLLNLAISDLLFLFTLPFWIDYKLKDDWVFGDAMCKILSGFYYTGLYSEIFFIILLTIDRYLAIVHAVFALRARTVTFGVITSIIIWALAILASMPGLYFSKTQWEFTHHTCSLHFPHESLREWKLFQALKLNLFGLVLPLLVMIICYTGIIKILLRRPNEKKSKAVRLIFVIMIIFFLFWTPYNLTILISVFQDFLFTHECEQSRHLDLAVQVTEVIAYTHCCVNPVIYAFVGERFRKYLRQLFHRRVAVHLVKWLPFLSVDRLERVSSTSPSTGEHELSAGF
T18 sequence (P25116 whole entry): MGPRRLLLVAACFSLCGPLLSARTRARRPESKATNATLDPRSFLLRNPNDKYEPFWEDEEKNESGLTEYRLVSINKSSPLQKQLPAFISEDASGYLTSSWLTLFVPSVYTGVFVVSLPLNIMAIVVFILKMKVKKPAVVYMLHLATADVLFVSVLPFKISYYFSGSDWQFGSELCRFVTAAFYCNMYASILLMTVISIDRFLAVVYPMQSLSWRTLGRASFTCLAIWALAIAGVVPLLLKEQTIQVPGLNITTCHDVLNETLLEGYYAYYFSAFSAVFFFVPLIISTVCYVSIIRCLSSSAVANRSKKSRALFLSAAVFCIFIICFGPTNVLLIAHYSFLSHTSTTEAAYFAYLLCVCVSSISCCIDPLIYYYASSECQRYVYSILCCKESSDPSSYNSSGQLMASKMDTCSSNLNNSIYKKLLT

[O-][S@@+](Cc1cncs1)C(c1ccccc1)c1ccccc1 [S-CE-123, (S)-5-((Benzhydrylsulfinyl)Methyl)Thiazole]
remaining binding at 2.8 µM (PKNB(M.tuberculosis)): 96%
inhibition at 2.8 µM (CCR1): -1.5%
inhibition at 2.8 µM (B1): -10.4%
inhibition at 2.8 µM (CCR4): -5.8%
inhibition at 2.8 µM (β1): 18.4%
inhibition at 2.8 µM (H4): 3.4%
inhibition at 2.8 µM (CXCR5): -1.9%
inhibition at 2.8 µM (CCR6): -26.7%
inhibition at 2.8 µM (β3): 15.5%
inhibition at 2.8 µM (α2A): -8.4%
inhibition at 2.8 µM (Ghrelin / GHSR-1a): -11.7%
inhibition at 2.8 µM (CCR8): -19.9%
inhibition at 2.8 µM (CCK1 (CCKA)): 18.2%
inhibition at 2.8 µM (FFA1): -2.8%
inhibition at 2.8 µM (GPR103/QRFP): -8.8%
inhibition at 2.8 µM (GHRH): 11.7%
inhibition at 2.8 µM (FFA4 (GPR120)): -14.4%
inhibition at 2.8 µM (BB2): -23.2%
inhibition at 2.8 µM (C3aR): 11.4%
inhibition at 2.8 µM (MT2 (ML1B) (h)): 6.2%
inhibition at 2.8 µM (NOP (h) (ORL1)): 18.4%
inhibition at 2.8 µM (P2Y1 (h)): -6.7%
inhibition at 2.8 µM (IP (PGI2) (h)): 16.3%
inhibition at 2.8 µM (PAR1 (h)): 2.1%
inhibition at 2.8 µM (EP2 (h)): 0.7%
